Data on four compounds can be found in patent US8227501B2, “1,6-dihydro-2H-3-oxa-6-aza-as-indacene compounds” (Ferrer Internacional, S.A., priority 2008, dated 2012).

The target in series [1] is T1, recombinant human-MT1 receptor (Homo sapiens, UniProt P48039).
T1 construct: expressed in transfected cells; host or cells: unnamed cell line stably overexpressing human MT1, co-expressing mitochondrial apoaequorin and Gα16
The series is described as follows: In vitro MT1 screening, agonist activity (AequoScreen aequorin luminescence). The series is classed as cell-based. The settings on record: percentage of activity relative to the reference agonist at the EC100 concentration; for activation at 0.001 µM: read-out: Agonism percentages of MT1, 1 nM; for activation at 0.1 µM: read-out: Agonism percentages of MT1, 100 nM. The text has this:
To proceed with compound screening over MT1 receptor, a cell line characterised by a stable overexpression of recombinant human-MT1 receptor was used. This line co-expresses mitochondrial apoaequorin and subunit Gα16.
Subunit Gα16 belongs to […], in which intracelular signal transduction is produced via phospholipase (PLC). Activation of PLC produces an increment of inositol-triphosphate levels and intracellular calcium levels. This increment in calcium levels is, therefore, independent and full compatible with the signal transduction of MT1 receptor.
After binding to calcium, aequorin carries out the oxidation of colenterazine to colenteramide, a luminescent reaction.
Assay protocol for agonist screening consists in an overnight incubation of cells and colenterazine, being performed by an AequoScreen™ system instrument, PerkinElmer, USA. After that this mixture was injected over a plate that contains the solution of the compounds to screen and luminescence was immediately read. Only in case of antagonism screening, after 15-30 min of the first injection the reference agonist was added in the same well, and then luminescence was measured.
Agonist activity was calculated as percentage of activity relative to the reference agonist at the EC100 concentration. Activity of antagonists was expressed as the inhibition percentage over the activity of reference agonist at its EC80, concentration.

For series [2] the following is noted: therapeutic use in humans; cited from earlier work.

T1 sequence (P48039 whole entry): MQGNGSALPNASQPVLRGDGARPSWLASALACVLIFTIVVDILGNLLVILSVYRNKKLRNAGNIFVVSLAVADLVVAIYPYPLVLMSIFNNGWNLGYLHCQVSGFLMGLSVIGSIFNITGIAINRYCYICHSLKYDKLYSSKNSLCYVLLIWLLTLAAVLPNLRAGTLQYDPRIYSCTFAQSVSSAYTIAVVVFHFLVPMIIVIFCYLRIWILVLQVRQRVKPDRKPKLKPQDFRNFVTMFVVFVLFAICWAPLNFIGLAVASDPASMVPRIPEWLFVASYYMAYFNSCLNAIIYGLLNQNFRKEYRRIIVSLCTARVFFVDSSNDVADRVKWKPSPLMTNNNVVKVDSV

As for `CCNC(=O)NCC(C)c1c[nH]c2cc(F)c3c(c12)CC(C)O3` (stereo not drawn) [Compound 42, 1-Ethyl-3-[2-(4-fluoro-2-methyl-1,6-dihydro-2H-3-oxa-6-aza-as-indacen-8-yl)-propyl]-urea], the activation at 0.001 µM in series [1] (1 nM compound) was found to be 19.7%. For the same compound, the activation at 0.1 µM in series [1] (100 nM compound) came to 87.8%.

On to `CC1Cc2c(c(F)cc3[nH]cc(C(C)CNC(=O)C(C)F)c23)O1` (stereo not drawn) [Compound 43, 2-Fluoro-N-[2-(4-fluoro-2-methyl-1,6-dihydro-2H-3-oxa-6-aza-as-indacen-8-yl)-propyl]-propionamide], for which, in series [1] (1 nM compound), the activation at 0.001 µM is 30.6%. In addition, the activation at 0.1 µM in series [1] (100 nM compound) was found to be 92.8%.

`COc1ccc2[nH]cc(CCNC(C)=O)c2c1` [Melatonin, reference compound]: in series [1] (1 nM compound), the “Agonism percentages of MT1, 1 nM” value is recorded as 48.0%. The “Agonism percentages of MT1, 100 nM” value in series [1] (100 nM compound) is on record as 102.6%. The half-life result in series [2] is “minutes”.

`CCC(=O)NCC[C@@H]1CCc2ccc3c(c21)CCO3` [Ramelteon, N-[2-[(8S)-1,6,7,8-tetrahydro-2H-indeno[5,4-b]furan-8-yl)ethyl]propionamide, reference compound]: in series [1] (1 nM compound), the activation at 0.001 µM came to 47.4%. In addition, in series [1] (100 nM compound), the activation at 0.1 µM came out at 118%.
